ChEMBL document CHEMBL1201862, “PubChem BioAssay data set” (2004)
One block for each molecule: values may come before it. Active and inactive are the calls of the source.

Columns and labels:
[1] = target: Voltage-gated N-type calcium channel alpha-1B subunit/Amyloid beta A4 precursor protein-binding family A member 1 (Homo sapiens, UniProt Q00975+Q02410); experiment: disruptors of Mint-PDZ/N-type channel peptide interaction – biochemical, HTRF, set 2, SAR follow-up (AID 434980); type: functional
[2] = target: Cyclin-dependent kinase 5/CDK5 activator 1 (Homo sapiens, UniProt Q00535); experiment: CDK5/p35 kinase inhibitors, dose response, biochemical, cherry-picked samples, set 2 (AID 504545)
Sequence of Cyclin-dependent kinase 5/CDK5 activator 1 (Q00535 whole entry): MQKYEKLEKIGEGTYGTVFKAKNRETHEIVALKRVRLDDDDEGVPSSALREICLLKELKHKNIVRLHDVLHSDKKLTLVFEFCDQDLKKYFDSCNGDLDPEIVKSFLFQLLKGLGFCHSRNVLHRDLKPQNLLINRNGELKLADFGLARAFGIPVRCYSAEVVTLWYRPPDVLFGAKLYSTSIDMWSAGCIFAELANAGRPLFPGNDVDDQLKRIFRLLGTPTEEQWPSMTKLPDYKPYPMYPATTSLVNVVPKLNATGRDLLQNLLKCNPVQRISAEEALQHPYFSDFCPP
Sequence of Cyclin-dependent kinase 5/CDK5 activator 1 (Q15078 whole entry, further chain): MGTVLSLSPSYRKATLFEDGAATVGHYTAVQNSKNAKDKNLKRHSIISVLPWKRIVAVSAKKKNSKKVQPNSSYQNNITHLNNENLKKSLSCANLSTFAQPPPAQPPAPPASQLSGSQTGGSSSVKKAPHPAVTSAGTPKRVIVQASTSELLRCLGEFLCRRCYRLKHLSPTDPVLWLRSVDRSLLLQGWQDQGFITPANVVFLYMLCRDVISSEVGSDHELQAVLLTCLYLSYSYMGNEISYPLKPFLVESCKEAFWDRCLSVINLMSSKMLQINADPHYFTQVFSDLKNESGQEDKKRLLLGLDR

[3] = target: T1, Intestinal-type alkaline phosphatase (Homo sapiens, UniProt P09923); experiment: human intestinal alkaline phosphatase activators, dose response, biochemical, luminescence, uHTS hits (AID 463120); type: functional
T1 sequence (P09923 whole entry): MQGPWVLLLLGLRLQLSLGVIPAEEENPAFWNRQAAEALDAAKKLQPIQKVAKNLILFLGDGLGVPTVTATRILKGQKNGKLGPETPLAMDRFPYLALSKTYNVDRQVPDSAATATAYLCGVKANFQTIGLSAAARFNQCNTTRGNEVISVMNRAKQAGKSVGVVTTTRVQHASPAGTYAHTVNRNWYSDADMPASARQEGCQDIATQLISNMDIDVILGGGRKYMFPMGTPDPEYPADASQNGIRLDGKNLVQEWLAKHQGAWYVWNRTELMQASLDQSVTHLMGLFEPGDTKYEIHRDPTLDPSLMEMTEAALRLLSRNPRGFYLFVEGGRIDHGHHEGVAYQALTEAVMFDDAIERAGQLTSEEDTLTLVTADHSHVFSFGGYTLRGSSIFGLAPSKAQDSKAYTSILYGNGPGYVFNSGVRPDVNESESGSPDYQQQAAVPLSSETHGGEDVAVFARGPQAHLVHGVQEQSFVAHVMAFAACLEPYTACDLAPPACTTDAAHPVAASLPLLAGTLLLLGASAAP

[4] = target: T1, Intestinal-type alkaline phosphatase; experiment: Dose Response confirmation of uHTS hits from a small molecule inhibitors of human intestinal alkaline phosphatase via a luminescent assay. [Related pubchem assays (depositor defined):AID2544, AID2574]; type: functional
[5] = target: G2/mitotic-specific cyclin-B1 (Homo sapiens, UniProt P14635); experiment: G2/M cell cycle arrest in HeLa, late-stage follow-up, mechanism study for Wee1 degradation inhibitor project, FACS, panel member Cyclin B Degradation (AID 2088)
Sequence of G2/mitotic-specific cyclin-B1 (P14635 whole entry): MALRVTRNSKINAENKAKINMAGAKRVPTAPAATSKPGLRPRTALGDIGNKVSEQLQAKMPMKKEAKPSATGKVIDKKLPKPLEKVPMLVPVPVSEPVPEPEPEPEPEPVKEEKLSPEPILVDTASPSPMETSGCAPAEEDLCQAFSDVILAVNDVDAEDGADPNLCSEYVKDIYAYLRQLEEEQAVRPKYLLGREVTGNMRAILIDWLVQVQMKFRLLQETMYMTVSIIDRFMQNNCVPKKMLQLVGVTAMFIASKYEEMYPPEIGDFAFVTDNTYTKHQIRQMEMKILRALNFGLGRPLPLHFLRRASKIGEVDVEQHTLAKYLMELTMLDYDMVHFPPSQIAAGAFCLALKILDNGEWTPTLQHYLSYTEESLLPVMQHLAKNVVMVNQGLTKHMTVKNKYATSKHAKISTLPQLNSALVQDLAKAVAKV

Wee1-like protein kinase = Wee1-like protein kinase (Homo sapiens, UniProt P30291); experiment: G2/M cell cycle arrest in HeLa, late-stage follow-up, mechanism study for Wee1 degradation inhibitor project, FACS, panel member Wee1 Degradation (AID 2088)
Sequence of Wee1-like protein kinase (P30291 whole entry): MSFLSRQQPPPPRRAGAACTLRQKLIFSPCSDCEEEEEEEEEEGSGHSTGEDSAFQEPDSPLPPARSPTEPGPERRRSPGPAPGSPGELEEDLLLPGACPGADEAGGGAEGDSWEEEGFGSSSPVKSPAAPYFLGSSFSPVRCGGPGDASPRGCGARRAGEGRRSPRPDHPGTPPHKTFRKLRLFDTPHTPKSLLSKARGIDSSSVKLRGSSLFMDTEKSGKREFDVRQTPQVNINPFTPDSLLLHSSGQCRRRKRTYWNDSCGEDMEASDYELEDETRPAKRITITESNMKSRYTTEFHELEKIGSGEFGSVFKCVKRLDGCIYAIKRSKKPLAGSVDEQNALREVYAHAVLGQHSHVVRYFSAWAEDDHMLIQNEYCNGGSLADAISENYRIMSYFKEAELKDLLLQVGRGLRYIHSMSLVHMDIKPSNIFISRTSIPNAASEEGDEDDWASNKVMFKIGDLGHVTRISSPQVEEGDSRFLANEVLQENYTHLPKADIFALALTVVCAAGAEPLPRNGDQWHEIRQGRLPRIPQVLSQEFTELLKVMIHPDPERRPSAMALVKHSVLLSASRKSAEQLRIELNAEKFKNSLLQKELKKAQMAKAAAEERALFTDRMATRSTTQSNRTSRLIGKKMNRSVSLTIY

IC50 [1]: > 56.8 µM (inactive)
SMILES: O=C(NCCN1CCCCC1)c1cc(-c2ccco2)nc2ccccc12

AC50 [2]: 90.5 µM (active)
SMILES: COc1ccc(C(=O)c2sc(NC(C)C)nc2N)cc1OC

EC50 [3]: > 100 µM (inactive) | IC50 [4]: > 100 µM (inactive)
SMILES: O=C(Nc1cccc(-c2cccc(F)c2)c1)C1CCN(C2CCC2)CC1

EC50 [5]: > 55.7 µM (inactive) | EC50 (Wee1-like protein kinase): > 55.7 µM (inactive)
SMILES: Cc1ccc(Nc2cc(C)nn2-c2nc(C)cc(O)n2)cc1
